Assays:
[1] = test system: iron-overloaded gerbils; assay: Iron-overload model in Mongolian gerbils (iron dextran ip), treatment with acetaminophen; assay type: in vivo, Mongolian gerbil
Description: Female Mongolian gerbils were divided into groups: positive iron control (iron injections given), iron-treated (injections of iron and acetaminophen), negative iron controls (no iron given), and treatment controls (injections of the investigational agent, only). Gerbils designated to receive iron were iron overloaded by a series of intraperitoneal (ip) injections of iron dextran during a two-month period of time. Treatments were initiated one month after completion of iron overloading and continued for one additional month.
Electrocardiograms (ECGs) were done on gerbils in all four groups, two months and again three months after completion of iron overloading. Gerbils were autopsied five months after completion of iron overloading and resulting stained tissue slides were evaluated by light microscopy. Livers and whole hearts were obtained from gerbils in control and iron-overloaded groups and weighed. Whole hearts and weighed liver samples were acid digested and measured for total iron content.

[2] = Toxicity of acetaminophen in iron overloaded animals versus animals with normal iron levels; assay type: in vivo; details: multiple tests, no details given
Description: It was initially believed that acetaminophen would be more toxic in iron overloaded animals than in animals having normal iron levels.

Compound: CC(=O)Nc1ccc(O)cc1 [acetaminophen]
- premature ventricular complexes (EKG findings) ([1]; ECGs two and three months after completion of iron overloading, four of 10 untreated iron-overloaded gerbils (40%) showed them): not in animals from the other three groups
- iron-induced cardiac and hepatic hypertrophy (heart weights, heart/total body weight ratios, liver weights, liver/total body weight ratios) ([1]; autopsies, weight data and histological evaluations): effectively combats iron-induced cardiac and hepatic hypertrophy
- reduction of cardiac iron (ICP-AES tissue iron measurement) ([1]; iron-overloaded female gerbils, versus untreated iron-overloaded animals, almost entirely from cardiomyocytes, less from cardiac macrophages, P<0.005): over 40%
- reduction in liver iron (ICP-AES tissue iron measurement) ([1]; iron-overloaded female gerbils, versus untreated iron-overloaded animals, not statistically significant): 17%
- accumulations of iron in the bone marrow, proximal renal tubules, heart and numerous other organs and tissues ([1]; stained tissue slides, light microscopy, less effect in the livers): greatly reduced accumulations of iron
- deaths ([1]; within 5 months after iron overloading, eight of 20 untreated iron-overloaded gerbils died): No deaths
- toxicity in animals having an iron overload compared with animals having normal iron levels [2]: less toxic in animals having an iron overload than in animals having normal iron levels

From US6509380B1, “Method of treating iron overload with acetaminophen” (Marshall University Research Corporation, priority 2001, dated 2003)
